Measurements published in patent US20230391826A1, “COMPOSITIONS AND METHODS FOR TREATING DISEASES” (Sanford Burnham Prebys Medical Discovery Institute, priority 2020, published 2023).
Converted amounts (≈) assume the structure as drawn. Read-outs that look alike come from different tables or passages of the source. Where a SMILES comes first, the peptide text is derived from it. Bridges are numbered along the chain shown (N, C = ends). Roman numbers before positions name the chains, in order. [ ]: non-standard residue; d: D form. βAla = NCCC(=O)O

Key:
[1] = molecular target: T1, EphA2 extracellular domain fused to Fc (EphA2-Fc) (Homo sapiens, UniProt P29317); assay: ELISA: inhibition of ephrinA5-AP binding to immobilized EphA2-Fc; conditions: inhibition of ephrin-A5 binding to EphA2; number of experiments in parentheses; read-out: Inc50 (nM) by ELISA
T1 construct: immobilized EphA2 extracellular domain fused to the Fc portion of an antibody (EphA2-Fc)
T1 sequence (P29317 24-537 limits assumed): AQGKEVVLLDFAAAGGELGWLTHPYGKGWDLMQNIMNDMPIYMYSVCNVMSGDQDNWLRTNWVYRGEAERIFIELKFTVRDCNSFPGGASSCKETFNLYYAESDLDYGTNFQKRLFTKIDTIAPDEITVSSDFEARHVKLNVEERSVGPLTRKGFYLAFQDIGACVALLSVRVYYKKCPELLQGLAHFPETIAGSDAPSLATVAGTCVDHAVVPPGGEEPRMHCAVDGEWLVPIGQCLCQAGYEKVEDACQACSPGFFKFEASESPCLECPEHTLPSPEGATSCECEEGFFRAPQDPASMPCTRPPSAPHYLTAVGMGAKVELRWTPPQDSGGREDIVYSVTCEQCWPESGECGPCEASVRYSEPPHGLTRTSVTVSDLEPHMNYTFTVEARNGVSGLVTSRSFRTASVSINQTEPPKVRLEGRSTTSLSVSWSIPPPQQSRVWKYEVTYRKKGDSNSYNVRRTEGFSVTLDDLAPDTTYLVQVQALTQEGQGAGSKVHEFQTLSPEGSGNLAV
Text: FIG. 1A-1C illustrates an example of Potency and selectivity of EphA2-targeting dimeric peptides. (FIG. 1A) ELISAs comparing the ability of the peptides to inhibit binding of ephrin-A5 fused to alkaline phosphatase (ephrinA5-AP) to the immobilized EphA2 extracellular domain fused to the Fc portion of an antibody (EphA2-Fc). The graphs show averages ±SD from triplicate measurements from a representative experiment. IC50 values calculated from the fitted curves in each experiment are shown. Averages of IC50 values obtained from multiple experiments are shown in panel FIG. 1B and Table 3. The 10 nM peptide concentration is outlined in red. (FIG. 1B) Plot of the average IC50 values (listed in Table 3) for different ligands. […] (FIG. 1C) EphrinA5-AP binding to EphA receptors and ephrinB2-AP binding to EphB receptors in the presence of dimeric peptides representing each of the three configurations. Values are normalized to ephrin binding without peptide. The graphs show averages and SDs from triplicate measurements (with each measurement shown as a dot).

AKT = assay: Inhibition of AKT phosphorylation on S473 in PC3 cells; assay type: cell-based; conditions: for EC50 / Etop pAKT inhlb: Table 3; for EC50: PC3 cells treated for 15 min, read-out: ECsa pAKT inhlb.; for Etop pAKT inhlb: 15 min, 1-pAKT/AKT normalized to cells not treated with ligand
Procedure: (§1) (FIG. 2A) Dose-response curves for EphA2 autophosphorylation on tyrosine 588 (pY588; purple) and for downstream inhibition of AKT phosphorylation (magenta). PC3 cells were treated for 15 min with different concentrations of the indicated peptides. […] The graphs show quantifications from multiple blots (averages ±SE; the number of experiments used to generate each curve is shown in Table 3). […] (FIG. 2B) Examples of immunoblots of lysates from PC3 cells treated with the indicated concentrations of representative ligands. […] A white vertical line indicates removal of irrelevant lanes. […] The bars show averages ±SE, and the individual measurements are shown as black dots. […] Plots of Etop versus EC50 for pY588 in FIG. 2D and for pAKT inh in FIG. 2E. Averages ±SE are shown for the peptides and ephrinA1.

[2] = Peptide solubility in PBS/H2O/DMSO; assay type: physicochemical
Procedure: Peptide identity and purity are documented by mass spectrometry and high-performance liquid chromatography (HPLC). The peptide solubility values are determined. Concentrated peptide stocks are prepared in DMSO or H2O and stored frozen at −80° C.

EphA2 [3] = molecular target: T2, EphA2 (Homo sapiens, UniProt P29317); assay: EphA2 autophosphorylation on tyrosine 588 in PC3 cells (immunoblot dose-response); assay type: cell-based; design: EphA2 is the prevalent endogenously expressed EphA receptor in these cells; endogenous in cells; host or cells: PC3 prostate cancer cells; conditions: for Etop pY588: Table 3, 15 min, saturating ligand, pY588/EphA2 normalized to ephrinA1-Fc
T2 sequence (P29317 24-976): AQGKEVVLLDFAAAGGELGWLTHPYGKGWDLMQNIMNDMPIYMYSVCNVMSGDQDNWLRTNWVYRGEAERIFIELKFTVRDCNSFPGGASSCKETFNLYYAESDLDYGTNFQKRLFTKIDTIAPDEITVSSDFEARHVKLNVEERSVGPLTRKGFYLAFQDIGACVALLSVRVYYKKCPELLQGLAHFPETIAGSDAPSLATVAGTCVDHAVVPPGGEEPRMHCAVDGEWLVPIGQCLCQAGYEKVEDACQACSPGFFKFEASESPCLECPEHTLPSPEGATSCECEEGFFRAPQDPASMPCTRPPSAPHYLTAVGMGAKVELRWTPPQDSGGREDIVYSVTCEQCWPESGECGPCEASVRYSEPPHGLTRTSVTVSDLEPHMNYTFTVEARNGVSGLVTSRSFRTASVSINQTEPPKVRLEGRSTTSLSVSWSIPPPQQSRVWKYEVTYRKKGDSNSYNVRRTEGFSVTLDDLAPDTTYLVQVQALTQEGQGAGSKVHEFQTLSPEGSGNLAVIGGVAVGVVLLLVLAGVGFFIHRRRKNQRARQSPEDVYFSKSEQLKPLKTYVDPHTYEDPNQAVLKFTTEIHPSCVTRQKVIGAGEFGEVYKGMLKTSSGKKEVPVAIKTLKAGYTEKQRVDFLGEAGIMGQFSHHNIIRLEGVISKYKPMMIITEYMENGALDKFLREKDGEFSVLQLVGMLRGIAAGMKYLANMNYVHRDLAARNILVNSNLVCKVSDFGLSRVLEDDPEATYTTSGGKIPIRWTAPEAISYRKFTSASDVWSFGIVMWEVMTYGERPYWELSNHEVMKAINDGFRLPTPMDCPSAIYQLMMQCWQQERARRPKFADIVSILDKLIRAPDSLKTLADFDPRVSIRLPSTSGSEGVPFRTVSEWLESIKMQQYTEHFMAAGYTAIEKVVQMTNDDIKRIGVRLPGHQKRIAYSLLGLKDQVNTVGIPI
Procedure: as §1
To examine the agonistic properties of the different dimeric peptide ligands, EphA2 autophosphorylation on tyrosine 588 (Y588) was measured, which is indicative of receptor activation and mediates binding of SH2 domain-containing proteins that link EphA2 to various downstream signaling pathways (FIG. 7). For these experiments, PC3 prostate cancer cells were stimulated with the dimeric peptides because EphA2 is the prevalent endogenously expressed EphA receptor in these cells, allowing comparisons with ephrins.

EphA2 [4] = molecular target: T2, EphA2; assay: Bias factor βlig (pY588 versus pAKT inhibition, PC3 cells, reference ephrinA1-Fc); assay type: cell-based; design: EphA2 is the prevalent endogenously expressed EphA receptor in these cells; endogenous in cells; host or cells: PC3 prostate cancer cells; conditions: for βu (bias factor βlig): Table 3, reference ligand ephrinA1-Fc (βlig=0)
Procedure: FIG. 6 illustrates an example where Ligands can bias EphA2 signaling responses. The bias factor βlig was calculated for the indicated ligands using ephrinA1-Fc as the reference ligand. Statistical significance for the comparison of the different ligands with the reference ligand ephrinA1-Fc (βlig=0) was determined by one sample t test; *, P<0.05; **, P<0.01; ***, P<0.001; ****, P<0.0001.
FIG. 14A-14E illustrates an example where distinct factors are responsible for EphA2 biased signaling induced by different ligands. (FIG. 14A) Etop values for EphA2 Y588 phosphorylation, as in FIG. 2C. (FIG. 14B) Etop values for inhibition of AKT phosphorylation. (FIG. 14C) Graph of the ratios of the Etop values for EphA2 Y588 phosphorylation and inhibition of AKT phosphorylation, which are used in the βlig calculation. (FIG. 14D) Graph of the ratios of the EC50 values for EphA2 Y588 phosphorylation and inhibition of AKT phosphorylation, which are used in the βlig calculation. (FIG. 14E) Equation used to calculate the bias factor βlig for each ligand. The terms of the equation are rearranged, compared to equation (1) in the Materials and Methods, to better conform to the graphs in FIG. 14A-14D. **, P<0.01; ***, P<0.001; ****, P<0.0001; ns, not significant for the comparison with ephrinA1-Fc by one-way ANOVA and Dunnett's posthoc test.
The possibility of EphA2 biased signaling by analyzing the dose-response curves obtained with endogenous EphA2 in PC3 cells (FIG. 2A) was explored using approaches developed for GPCRs. This involves using EphA2 Y588 phosphorylation and AKT phosphorylation quantified as a function of ligand concentration to determine and compare the potency (EC50) and efficacy (Etop) for the two responses induced by different ligands. Remarkably, large differences among the ligands in the Etop values for Y588 phosphorylation (FIGS. 2C, 2D and 14A), but not in the Etop values for AKT inhibition (FIGS. 2E and 14B), were observed. In terms of relative efficacies for pY588 and pAKT inhibition, the C-terminally linked dimers and monomeric ligands behave differently from ephrinA1-Fc, while the N-terminally linked dimers and the head-to-tail dimer (8) are similar to ephrinA1-Fc (FIG. 14C). […] Thus, the type of linkage affects EphA2 signaling properties induced by the dimeric peptides.
The determined EC50 and Etop values allowed us to calculate the bias factor βlig for the two different responses induced by the various ligands relative to ephrinA1-Fc as the reference ligand (FIG. 14E). […] Remarkably, the bias originates from different mechanisms that depend on the class of ligands, with the N-terminally linked and head-to-tail dimers modulating relative potencies and the C-terminally-linked dimers and monomers modulating relative efficacies.

EphA2 LBD [5] = molecular target: T3, EphA2 LBD (Homo sapiens, UniProt P29317); conditions: previous studies, cited from earlier work
T3 construct: made in house; host or cells: E. coli Origami 2(DE3)
T3 sequence (P29317 28-200): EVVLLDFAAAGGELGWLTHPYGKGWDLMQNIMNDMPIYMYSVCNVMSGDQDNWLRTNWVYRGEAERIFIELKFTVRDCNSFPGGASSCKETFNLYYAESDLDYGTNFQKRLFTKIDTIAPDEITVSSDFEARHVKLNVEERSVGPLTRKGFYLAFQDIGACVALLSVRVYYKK

EphA2 [6] = molecular target: T2, EphA2; assay: EphA2 activation (Y588 phosphorylation) in cells by monomeric YSA derivatives; assay type: cell-based; design: EphA2 is the prevalent endogenously expressed EphA receptor in these cells; endogenous in cells; host or cells: PC3 prostate cancer cells
Text: However, as expected given their much higher potency, these two peptides are active at nanomolar concentrations. The C-terminal biotin promotes the agonistic activity of YSA derivative peptides. […] This is confirmed with the crystal structures. Thus, peptides with 1 to 7 residues between Prol 0, which is conserved in all YSA derivatives of Table 2, and the Lys-biotin residue, can all efficiently activate EphA2. […] Non-amidated β[…] has the ability to activate EphA2 in cells, even though the concentrations needed are about 10-fold higher than for the biotinylated peptide and the maximal […] phosphorylation induced by saturating peptide concentrations is about 40% lower. The C-terminally amidated version of the peptide loses the ability to activate EphA2, consistent with a role of the C-terminal negative charge for EphA2 activation even in the absence of biotin.

EphA2 LBD [7] = molecular target: T3, EphA2 LBD; assay: Isothermal titration calorimetry (ITC) with soluble EphA2 LBD; assay type: binding
Procedure: (FIG. 10A-10E) The EphA2 LBD was titrated at 200-250 μM into 10-12.5 μM of the indicated peptide.
For ITC, all peptides are dissolved in DMSO and both the EphA2 LBD and the peptides are diluted to obtain a final buffer containing 9.5 mM HEPES, pH 7.9, 95 mM NaCl, and 5% DMSO. The experiments are carried out at 296 K (23° C.) using an ITC200 calorimeter (Microcal). Two-microliter aliquots of a peptide solution are injected into the cell containing 205 μL EphA2 LBD. 200-400 μM peptides are titrated into 20-40 μM EphA2 LBD. Experimental data are analyzed using the Origin software package (Microcal). The integrated values for the reaction heats are normalized to the amount of injected peptide after blank subtraction.

[8] = DMSO, Table 4, third of PBS/H20/DMSO, read-out: Solubility in DMSO
[9] = DMSO, third of PBS/H2O/DMSO, read-out: Solubility in DMSO
[10] = PBS, Table 4, first of PBS/H20/DMSO, read-out: Solubility in PBS
[11] = PBS, first of PBS/H2O/DMSO, read-out: Solubility in PBS
[12] = water, Table 4, second of PBS/H20/DMSO, read-out: Solubility in H20
[13] = water, second of PBS/H2O/DMSO, read-out: Solubility in H2O

SMILES | IC50 [1] [nM] | EC50 (AKT) [nM] | Etop pAKT inhlb (AKT; PC3 cells) | solubility [2, 8] [mg/mL] | solubility [2, 9] [mg/mL] | solubility [2, 10] [mg/mL] | solubility [2, 11] [mg/mL] | solubility [2, 12] [mg/mL] | solubility [2, 13] [mg/mL] | Etop pY588 (EphA2 [3]) | βu (bias factor βlig) (EphA2 [4]) | other results
CC(C)C[C@H](NC(=O)[C@H](Cc1c[nH]c2ccccc12)NC(=O)[C@H](C)NC(=O)CNC(=O)[C@@H](N)CSSC[C@H](N)C(=O)NCC(=O)N[C@@H](C)C(=O)N[C@@H](Cc1c[nH]c2ccccc12)C(=O)N[C@@H](CC(C)C)C(=O)N[C@@H](C)C(=O)N[C@@H](Cc1ccc(O)cc1)C(=O)N1CCC[C@H]1C(=O)N[C@@H](CC(=O)O)C(=O)N[C@@H](CO)C(=O)N[C@H](C(=O)N1CCC[C@H]1C(=O)N[C@@H](Cc1ccc(O)cc1)C(=O)N[C@@H](CCCNC(=N)N)C(=O)N1CCC[C@H]1C(=O)N[C@@H](CCCCN)C(N)=O)C(C)C)C(=O)N[C@@H](C)C(=O)N[C@@H](Cc1ccc(O)cc1)C(=O)N1CCC[C@H]1C(=O)N[C@@H](CC(=O)O)C(=O)N[C@@H](CO)C(=O)N[C@H](C(=O)N1CCC[C@H]1C(=O)N[C@@H](Cc1ccc(O)cc1)C(=O)N[C@@H](CCCNC(=N)N)C(=O)N1CCC[C@H]1C(=O)N[C@@H](CCCCN)C(N)=O)C(C)C [compound 6, CGA-WLA-YRPKam dimer (N-ter)] | 0.4 ± 0.1 | 0.08 ± 0.02 | 0.97 ± 0.03 | 10 (≈ 2750 µM) | 10 (≈ 2750 µM) | < 0.1 | < 0.1 | 5 (≈ 1370 µM) | 5 (≈ 1370 µM) | 0.98 ± 0.08 | 0.51 ± 0.13 | IC50 (AKT; PC3 cells): 0.043 ± 0.007 nM; Emax PY588 (EphA2 [3]; ephrinA1Fc = 1.00): 0.80 ± 0.01; EC50 (EphA2 [3]; read-out: EC50 PY588): 0.12 ± 0.01 nM; Blig (EphA2 [4]; bias factor, reference ligand ephrinA1Fc): 0.36 ± 0.09
CC(C)C[C@H](NC(=O)[C@H](Cc1c[nH]c2ccccc12)NC(=O)CCN)C(=O)N[C@@H](C)C(=O)N[C@@H](Cc1ccc(O)cc1)C(=O)N1CCC[C@H]1C(=O)N[C@@H](CC(=O)O)C(=O)N[C@@H](CO)C(=O)N[C@H](C(=O)N1CCC[C@H]1C(=O)N[C@@H](Cc1ccc(O)cc1)C(=O)N[C@@H](CCCNC(=N)N)C(=O)N1CCC[C@H]1C(=O)N[C@@H](CCCCN)C(=O)O)C(C)C [βA-WLA-YRPK] | – | – | – | – | – | – | – | – | – | – | – | improvement of binding affinity compared to monomeric YSA-GSGSK-bio (EphA2 LBD [5]): 50 fold; Kd (EphA2 LBD [5]; read-out: binding affinity for the EphA2 LBD measured by ITC): ~200 nM; maximal Y588 phosphorylation at saturating peptide concentrations, lower than the biotinylated peptide (EphA2 [6]): about 40%; concentrations needed to activate EphA2 in cells relative to the biotinylated peptide (EphA2 [6]; higher than for βA-WLA-YRPK-bio): about 10 fold
CC(C)C[C@H](NC(=O)[C@H](Cc1c[nH]c2ccccc12)NC(=O)CCN)C(=O)N[C@@H](C)C(=O)N[C@@H](Cc1ccc(O)cc1)C(=O)N1CCC[C@H]1C(=O)N[C@@H](CC(=O)O)C(=O)N[C@@H](CO)C(=O)N[C@H](C(=O)N1CCC[C@H]1C(=O)N[C@@H](Cc1ccc(O)cc1)C(=O)NCC(=O)N[C@@H](CO)C(=O)NCC(=O)N[C@@H](CSSC[C@H](NC(=O)CNC(=O)[C@H](CO)NC(=O)CNC(=O)[C@H](Cc1ccc(O)cc1)NC(=O)[C@@H]1CCCN1C(=O)[C@@H](NC(=O)[C@H](CO)NC(=O)[C@H](CC(=O)O)NC(=O)[C@@H]1CCCN1C(=O)[C@H](Cc1ccc(O)cc1)NC(=O)[C@H](C)NC(=O)[C@H](CC(C)C)NC(=O)[C@H](Cc1c[nH]c2ccccc12)NC(=O)CCN)C(C)C)C(=O)O)C(=O)O)C(C)C [compound 1, βA-WLA-YGSGC dimer (C-ter)] (I: H-[βAla]WLAYPDSVPYGSGC-OH / II: H-[βAla]WLAYPDSVPYGSGC-OH; disulfide I:15-II:15; N-terminus and C-terminus assumed) | 71 ± 26 | 39 ± 8 | 0.90 ± 0.04 | 5 (≈ 1580 µM) | 5 (≈ 1580 µM) | < 0.1 | < 0.1 | < 0.1 | < 0.1 | 0.49 ± 0.06 | 0.506 ± 0.12 | Kd (EphA2 LBD [7]): 2900 nM; N (binding stoichiometry by ITC) (EphA2 LBD [7]; Table 3): N = 1.7 ± 0.2; -TΔS (EphA2 LBD [7]; Table 6): 68.2 ± 46 kJ/mol; N (EphA2 LBD [7]; Table 6, binding stoichiometry): 1.7 ± 0.2; ΔG (EphA2 LBD [7]; Table 6, change in Gibbs energy): -31.6 ± 1.13 kJ/mol; ΔH (EphA2 LBD [7]; Table 6, change in enthalpy): -99.79 ± 46 kJ/mol
